Patent US20240116985A1, “STAPLED PEPTIDES AND METHODS THEREOF” (priority 2020, published 2024)
Like-named read-outs stand apart in the source and are kept apart here.

How the values were obtained:
[1] = molecular target: T1, full-length beta-Catenin (Uniprot ID P35222) (Homo sapiens, UniProt P35222); assay: Fluorescence polarization IC50 (beta-catenin / 5FAM-TCF4 10-53 competition); assay type: binding
T1 construct: 10 nM full-length beta-Catenin (Uniprot ID P35222)
T1 sequence (P35222 1-781): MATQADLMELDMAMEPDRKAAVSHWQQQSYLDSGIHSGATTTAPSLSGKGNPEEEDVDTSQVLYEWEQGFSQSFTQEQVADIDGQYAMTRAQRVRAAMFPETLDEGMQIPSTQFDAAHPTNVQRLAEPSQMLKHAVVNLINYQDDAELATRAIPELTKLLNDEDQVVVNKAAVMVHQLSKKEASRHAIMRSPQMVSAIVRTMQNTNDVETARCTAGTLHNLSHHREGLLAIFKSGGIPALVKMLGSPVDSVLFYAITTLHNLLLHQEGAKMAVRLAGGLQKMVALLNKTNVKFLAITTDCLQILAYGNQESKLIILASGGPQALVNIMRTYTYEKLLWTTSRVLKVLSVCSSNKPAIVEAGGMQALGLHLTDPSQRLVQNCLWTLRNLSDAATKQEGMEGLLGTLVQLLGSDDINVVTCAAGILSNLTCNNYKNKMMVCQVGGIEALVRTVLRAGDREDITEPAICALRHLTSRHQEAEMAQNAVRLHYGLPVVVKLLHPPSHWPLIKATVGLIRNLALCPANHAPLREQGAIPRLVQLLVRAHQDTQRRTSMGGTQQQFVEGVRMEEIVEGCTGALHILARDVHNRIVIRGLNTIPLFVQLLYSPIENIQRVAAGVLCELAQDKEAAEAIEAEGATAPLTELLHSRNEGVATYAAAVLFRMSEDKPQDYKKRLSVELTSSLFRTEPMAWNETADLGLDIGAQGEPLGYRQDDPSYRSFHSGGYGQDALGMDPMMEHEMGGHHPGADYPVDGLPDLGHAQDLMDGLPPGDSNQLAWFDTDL

[2] = molecular target: T2, full-length B-Catenin (Uniprot ID P35222) (Homo sapiens, UniProt P35222); assay: Alphascreen binding assay (beta-catenin / biotin-TCF4 10-53)
T2 construct: 65 nM full-length B-Catenin (Uniprot ID P35222)
T2 sequence (P35222 1-781): T1 sequence (P35222 1-781)
In short: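 Final concentrations: 65 nM full-length human β-catenin plus 10 nM biotin-TCF4(10-53) peptide, test peptide 3-fold from 10 uM to 5 nM, preincubated 15 min at 20 °C in Tris pH 8.0/250 mM NaCl buffer. Nickel-chelate AlphaScreen donor/acceptor beads then added for 60 min in the dark; duplicate reads fitted to 1:1 binding model with Hill slope.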

[3] = CHI Log D procedure; assay type: physicochemical; details: for CHI Log D: pH 7.4; for chromatographic logD: pH 7.4, CHI Log D
[4] = Table E2-1, read-out: beta-Catenin FP IC50
[5] = fluorescence polarization, beta-catenin, read-out: FP EC50

Row | IC50 [1, 4] [nM] | IC50 [1, 5] [nM] | EC50 [2] [nM] | CHI Log D [3] | chromatographic logD [3] | Structure (SMILES)
1 | 1870 | 1870 | 187 | 2.208 |  | CC(=O)N1CCC[C@]12CC=CCCCC1(CCCC=CCCCCCC[C@@](C)(C(=O)N[C@@H](Cc3ccccc3)C(=O)N[C@@H](Cc3c[nH]c4ccccc34)C(=O)N[C@@H](C)C(N)=O)NC(=O)[C@H](C(C)C)NC(=O)[C@H](Cc3ccccc3)NC(=O)[C@H](C)NC(=O)[C@H](C)NC(=O)[C@H](CC(=O)O)NC(=O)[C@H](CC(=O)O)NC1=O)NC(=O)[C@H](C)NC(=O)[C@H](CC(=O)O)NC2=O (stereo partly drawn) [I-292, Ac-PL3-Asp-Ala-B5-Asp-Asp-Ala-Ala-Phe-Val-S8-Phe-Trp-Ala-NH2]
2 | 139 |  | 41 |  | 2.38 | CC(=O)N1CCC[C@]12CC=CCCCC1(CCCC=CCCCCCC[C@@](C)(C(=O)N[C@@H](Cc3ccccc3)C(=O)N[C@@H](Cc3csc4ccccc34)C(=O)N[C@@H](CCC(N)=O)C(N)=O)NC(=O)[C@H](C(C)C)NC(=O)[C@H](Cc3ccccc3)NC(=O)[C@H](C)NC(=O)[C@H](C)NC(=O)[C@H](CN(CC(=O)O)CC(F)(F)F)NC(=O)[C@H](CC(=O)O)NC1=O)NC(=O)[C@H](C)NC(=O)[C@H](CC(=O)O)NC2=O (stereo partly drawn) [I-293, Ac-PL3-Asp-Ala-B5-Asp-TfeGA-Ala-Ala-Phe-Val-S8-Phe-BztA-Gln-NH2]
3 | 130 |  | 40 |  | 2 | CC(=O)N1CCC[C@]12CC=CCCCC1(CCCC=CCCCCCC[C@@](C)(C(=O)N[C@@H](Cc3ccccc3)C(=O)N[C@@H](Cc3csc4ccccc34)C(=O)N[C@@H](CCC(N)=O)C(N)=O)NC(=O)[C@H](CCC(N)=O)NC(=O)[C@H](Cc3ccccc3)NC(=O)[C@H](C)NC(=O)[C@H](C)NC(=O)[C@H](CC(=O)O)NC(=O)[C@H](CC(=O)O)NC1=O)NC(=O)[C@H](C)NC(=O)[C@H](CC(=O)O)NC2=O (stereo partly drawn) [I-294, Ac-PL3-Asp-Ala-B5-Asp-Asp-Ala-Ala-Phe-Gln-S8-Phe-BztA-Gln-NH2]
4 | 5000 |  | 1180 |  | 2.66 | CC(=O)N1CCC[C@]12CC=CCCCC1(CCCC=CCCCCCC[C@@](C)(C(=O)N[C@@H](Cc3ccccc3)C(=O)N[C@@H](Cc3csc4ccccc34)C(=O)N[C@@H](CCC(N)=O)C(N)=O)NC(=O)[C@H](CCC(N)=O)NC(=O)[C@H](Cc3ccccc3)NC(=O)[C@H](C)NC(=O)[C@H](C)NC(=O)[C@H](Cc3ccc4ccccc4c3)NC(=O)[C@H](CC(=O)O)NC1=O)NC(=O)[C@H](C)NC(=O)[C@H](CC(=O)O)NC2=O (stereo partly drawn) [I-295, Ac-PL3-Asp-Ala-B5-Asp-2NapA-Ala-Ala-Phe-Gln-S8-Phe-BztA-Gln-NH2]
5 | 1300 |  | 189 |  | 2 | CC(=O)N1CCC[C@]12CC=CCCCC1(CCCC=CCCCCCC[C@@](C)(C(=O)N[C@@H](Cc3ccccc3)C(=O)N[C@@H](Cc3csc4ccccc34)C(=O)N[C@@H](C)C(N)=O)NC(=O)[C@H](CCC(N)=O)NC(=O)[C@H](Cc3ccccc3)NC(=O)[C@H](C)NC(=O)[C@H](C)NC(=O)[C@H](CC(=O)O)NC(=O)[C@H](CC(=O)O)NC1=O)NC(=O)[C@H](CCO)NC(=O)[C@H](CC(=O)O)NC2=O (stereo partly drawn) [I-299, Ac-PL3-Asp-Hse-B5-Asp-Asp-Ala-Ala-Phe-Gln-S8-Phe-BztA-Ala-NH2]
6 | 3120 | 3120 | 181 | 2.05 |  | CC(=O)N1CCC[C@]12CC=CCCCC1(CCCC=CCCCCCC[C@@](C)(C(=O)N[C@@H](Cc3ccccc3)C(=O)N[C@@H](Cc3c[nH]c4ccccc34)C(=O)N[C@@H](CCC(N)=O)C(N)=O)NC(=O)[C@H](C(C)C)NC(=O)[C@H](Cc3ccc(Cl)cc3)NC(=O)[C@H](C)NC(=O)[C@H](C)NC(=O)[C@H](CC(=O)O)NC(=O)[C@H](CC(=O)O)NC1=O)NC(=O)[C@H](C)NC(=O)[C@H](CC(=O)O)NC2=O (stereo partly drawn) [I-309, Ac-PL3-Asp-Ala-B5-Asp-Asp-Ala-Ala-4C1F-Val-S8-Phe-Trp-Gln-NH2]
7 | 3980 |  | 136 |  | 1.91 | CC(=O)N1CCC[C@]12CC=CCCCC1(CCCC=CCCCCCC[C@@](C)(C(=O)N[C@@H](Cc3ccccc3)C(=O)N[C@@H](Cc3c[nH]c4ccccc34)C(=O)N[C@@H](C)C(N)=O)NC(=O)[C@H](CCC(N)=O)NC(=O)[C@H](Cc3ccccc3)NC(=O)[C@H](C)NC(=O)[C@H](C)NC(=O)[C@H](CC(=O)O)NC(=O)[C@H](CC(=O)O)NC1=O)NC(=O)[C@H](C)NC(=O)[C@H](CC(=O)O)NC2=O (stereo partly drawn) [I-316, Ac-PL3-Asp-Ala-B5-Asp-Asp-Ala-Ala-Phe-Gln-S8-Phe-Trp-Ala-NH2]
8 | 4630 | 4630 | 121 | 2.001 |  | CC(=O)N1CCC[C@]12CC=CCCCC1(CCCC=CCCCCCC[C@@](C)(C(=O)N[C@@H](Cc3ccccc3F)C(=O)N[C@@H](Cc3c[nH]c4ccccc34)C(=O)N[C@@H](CCC(N)=O)C(N)=O)NC(=O)[C@H](C(C)C)NC(=O)[C@H](Cc3ccccc3)NC(=O)[C@H](C)NC(=O)[C@H](C)NC(=O)[C@H](CC(=O)O)NC(=O)[C@H](CC(=O)O)NC1=O)NC(=O)[C@H](C)NC(=O)[C@H](CC(=O)O)NC2=O (stereo partly drawn) [I-318, Ac-PL3-Asp-Ala-B5-Asp-Asp-Ala-Ala-Phe-Val-S8-2FF-Trp-Gln-NH2]
9 | 1420 | 1420 | 54 | 2.019 |  | CC(=O)N1CCC[C@]12CC=CCCCC1(CCCC=CCCCCCC[C@@](C)(C(=O)N[C@@H](Cc3ccccc3F)C(=O)N[C@@H](Cc3c[nH]c4ccccc34)C(=O)N[C@@H](CCC(N)=O)C(N)=O)NC(=O)[C@H](C(C)C)NC(=O)[C@H](Cc3ccccc3)NC(=O)[C@H](C)NC(=O)[C@H](C)NC(=O)[C@H](CC(=O)O)NC(=O)[C@H](CC(=O)O)NC1=O)NC(=O)[C@H](C)NC(=O)[C@H](CC(=O)O)NC2=O (stereo partly drawn) [I-319, Ac-PL3-Asp-Ala-B5-Asp-Asp-Ala-Ala-Phe-Val-S8-2FF-Trp-Gln-NH2]
10 | 3470 | 3470 | 92 | 1.953 |  | CC(=O)N1CCC[C@]12CC=CCCCC1(CCCC=CCCCCCC[C@@](C)(C(=O)N[C@@H](Cc3ccccc3)C(=O)N[C@@H](Cc3c[nH]c4ccccc34)C(=O)N[C@@H](CCC(N)=O)C(N)=O)NC(=O)[C@H](C(C)C)NC(=O)[C@H](Cc3ccc(N)cc3)NC(=O)[C@H](C)NC(=O)[C@H](C)NC(=O)[C@H](CC(=O)O)NC(=O)[C@H](CC(=O)O)NC1=O)NC(=O)[C@H](C)NC(=O)[C@H](CC(=O)O)NC2=O (stereo partly drawn) [I-323, Ac-PL3-Asp-Ala-B5-Asp-Asp-Ala-Ala-4AmPhe-Val-S8-Phe-Trp-Gln-NH2]
11 | 1310 |  | 53 |  | 1.98 | CC(=O)N1CCC[C@]12CC=CCCCC1(CCCC=CCCCCCC[C@@](C)(C(=O)N[C@@H](Cc3ccccc3)C(=O)N[C@@H](Cc3c[nH]c4ccccc34)C(=O)N[C@@H](CCC(N)=O)C(N)=O)NC(=O)[C@H](C(C)C)NC(=O)[C@H](Cc3cccs3)NC(=O)[C@H](C)NC(=O)[C@H](C)NC(=O)[C@H](CC(=O)O)NC(=O)[C@H](CC(=O)O)NC1=O)NC(=O)[C@H](C)NC(=O)[C@H](CC(=O)O)NC2=O (stereo partly drawn) [I-325, Ac-PL3-Asp-Ala-B5-Asp-Asp-Ala-Ala-2Thi-Val-S8-Phe-Trp-Gln-NH2]
